The values below come from ChEMBL document CHEMBL1201862, “PubChem BioAssay data set” (2004).

One may read the IC50 as the concentration at which inhibition is half-maximal. As a reminder, the EC50 is the concentration that produces a half-maximal response.

The structures appear in SMILES notation. The source made the active and inactive calls.

Assay [1] addresses T1, Estrogen receptor beta (Homo sapiens, UniProt Q92731).
Assay [2] deals with DNA dC->dU-editing enzyme APOBEC-3A (Homo sapiens, UniProt P31941). Description: Dose Response confirmation of small molecule APOBEC3A DNA Deaminase Inhibitors via a fluorescence-based single-stranded DNA deaminase assay. [Related pubchem assays (depositor defined):AID493011, AID493024]. It is filed as functional.
Sequence of DNA dC->dU-editing enzyme APOBEC-3A (P31941 whole entry): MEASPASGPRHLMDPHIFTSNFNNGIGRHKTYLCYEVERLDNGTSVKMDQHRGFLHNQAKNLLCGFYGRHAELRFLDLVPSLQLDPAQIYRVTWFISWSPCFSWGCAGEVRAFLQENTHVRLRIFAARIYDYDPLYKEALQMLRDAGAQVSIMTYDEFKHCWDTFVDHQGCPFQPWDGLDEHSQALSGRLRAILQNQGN
The target of assay [3] is DNA dC->dU-editing enzyme APOBEC-3G (Homo sapiens, UniProt Q9HC16). It is filed as functional.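 Further: Dose-response counterscreen measuring inhibition of APOBEC3G DNA deaminase activity, run while confirming APOBEC3A inhibitors.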
Sequence of DNA dC->dU-editing enzyme APOBEC-3G (Q9HC16 whole entry, the tested form may be a part): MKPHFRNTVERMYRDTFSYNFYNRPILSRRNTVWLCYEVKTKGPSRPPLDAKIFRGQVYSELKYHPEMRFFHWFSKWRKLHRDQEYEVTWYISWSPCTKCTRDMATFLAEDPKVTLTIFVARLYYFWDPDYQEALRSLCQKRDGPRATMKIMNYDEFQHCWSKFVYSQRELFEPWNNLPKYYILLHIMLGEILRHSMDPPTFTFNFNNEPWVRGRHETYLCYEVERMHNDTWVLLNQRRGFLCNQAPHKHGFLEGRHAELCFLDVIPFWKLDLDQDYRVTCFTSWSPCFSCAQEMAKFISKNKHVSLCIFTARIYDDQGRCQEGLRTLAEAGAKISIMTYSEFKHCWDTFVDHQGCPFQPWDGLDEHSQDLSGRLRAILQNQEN
For assay [4], the target named is T2, Carboxy-terminal domain RNA polymerase II polypeptide A small phosphatase 1 (Homo sapiens, UniProt Q9GZU7).
T2 sequence (Q9GZU7 whole entry): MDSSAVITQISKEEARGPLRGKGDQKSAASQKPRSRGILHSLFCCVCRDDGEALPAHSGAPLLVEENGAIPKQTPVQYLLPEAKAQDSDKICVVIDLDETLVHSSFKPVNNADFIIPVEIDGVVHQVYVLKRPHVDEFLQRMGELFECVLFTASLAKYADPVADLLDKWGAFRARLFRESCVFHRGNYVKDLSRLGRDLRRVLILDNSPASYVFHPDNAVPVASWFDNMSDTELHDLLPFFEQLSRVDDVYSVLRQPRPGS
Description: CTDSP1 inhibitors, concentration-response, biochemical, absorbance readout, ultra-high-throughput screen actives (AID 540297). It is filed as functional.

Assay [5] addresses Voltage-gated inwardly rectifying potassium channel KCNH2 (Homo sapiens, UniProt Q12809). Description: concentration-dependent hERG rescue from blockers – cell-based, thallium flux, dose response (AID 2121). It is filed as ADME.
Assay [6] addresses Heat shock protein HSP 90-alpha (Homo sapiens, UniProt P07900). In words: Luminescence-based dose response biochemical high throughput screening assay for inhibitors of the Heat Shock Protein 90 (HSP90). [Related pubchem assays: 1831 (Summary AID.), 1846 (Confirmation screen.), 1789 (Primary screen.)].
Assay [7] deals with Glyceraldehyde-3-phosphate dehydrogenase (Homo sapiens, UniProt P04406).
Sequence of Glyceraldehyde-3-phosphate dehydrogenase (P04406 whole entry): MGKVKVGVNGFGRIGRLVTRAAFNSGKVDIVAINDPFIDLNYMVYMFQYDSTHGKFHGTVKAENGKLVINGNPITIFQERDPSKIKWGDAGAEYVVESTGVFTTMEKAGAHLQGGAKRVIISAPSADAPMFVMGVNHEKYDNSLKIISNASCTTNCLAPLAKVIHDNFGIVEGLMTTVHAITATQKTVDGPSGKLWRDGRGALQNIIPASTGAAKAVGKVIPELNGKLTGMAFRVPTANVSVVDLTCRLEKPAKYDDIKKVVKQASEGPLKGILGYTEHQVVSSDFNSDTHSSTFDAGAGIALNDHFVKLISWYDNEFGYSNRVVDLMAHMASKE
The target of assay [8] is T3, Bcl-2-related protein A1 (Mus musculus, UniProt Q07440).
T3 sequence (Q07440 whole entry): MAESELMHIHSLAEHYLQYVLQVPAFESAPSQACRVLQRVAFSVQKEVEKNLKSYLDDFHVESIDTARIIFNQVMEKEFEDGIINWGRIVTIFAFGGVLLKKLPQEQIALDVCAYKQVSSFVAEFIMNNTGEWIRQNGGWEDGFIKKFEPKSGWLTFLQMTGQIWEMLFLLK
Description: small-molecule antagonists of Bfl-1/BH3 interaction – biochemical, TR-FRET, mouse Bfl-1, confirmation (AID 621).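 Further: TR-FRET binding of GST-Bfl-1 to FITC-labelled Bid peptide via terbium antibody.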 Background: TR-FRET usually uses a lanthanide donor and a delayed reading to cut background.

The target of assay [9] is T3, Bcl-2-related protein A1. Description: Bfl-1 binding inhibitors, SAR follow-up, biochemical, fluorescence polarization (AID 1070). Background: In fluorescence polarisation assays a small probe gives low polarisation when free and higher when bound to something large.
Assay [10] addresses T1, Estrogen receptor beta. Description: blockers of SRC-3 recruitment to ERβ – biochemical, ELISA, streptavidin-HRP readout, orthogonal assay, confirmation (AID 1060). In general terms: An ELISA detects its analyte on a solid surface through an enzyme-linked reagent.
In assay [11] the target is Sphingosine 1-phosphate receptor 2 (Homo sapiens, UniProt O95136). Description: Dose Response Cell Based Assay for Agonists of the S1P2 Receptor of Purchased Analogues. [Related pubchem assays: 729, 843, 854, 736 ]. It is filed as functional.
Sequence of Sphingosine 1-phosphate receptor 2 (O95136 whole entry): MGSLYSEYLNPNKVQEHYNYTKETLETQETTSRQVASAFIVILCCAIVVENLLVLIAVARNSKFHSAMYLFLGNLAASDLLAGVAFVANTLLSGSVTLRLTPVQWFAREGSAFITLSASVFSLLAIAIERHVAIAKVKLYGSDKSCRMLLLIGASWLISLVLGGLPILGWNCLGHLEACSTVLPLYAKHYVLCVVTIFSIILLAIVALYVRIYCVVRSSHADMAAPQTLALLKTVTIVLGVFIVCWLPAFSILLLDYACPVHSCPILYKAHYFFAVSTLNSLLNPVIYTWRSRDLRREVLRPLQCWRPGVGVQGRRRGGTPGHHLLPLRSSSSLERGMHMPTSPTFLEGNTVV
The next assay addresses NADPH oxidase 1 (Homo sapiens, UniProt Q9Y5S8). It is filed as functional, cell-based.
Assay [12] can be described thus: CellTiter-Glo luminescence survival assay, SW480 colon tumor line, concentration-response curve, half-maximal inhibitory concentration (AID 1117338). It is filed as functional.
A short description of assay [13]: RKO cell viability reduction, dose response, CellTiter-Glo luminescence (AID 1117322). It is filed as functional.
Assay [14] can be described thus: cytotoxicity toward HCT116 cells – cell-based, CellTiter-Glo luminescence, IC50, dose response (AID 1117332). It is filed as functional. The conditions noted are these: HCT-116.
Assay [15] can be described thus: glucagon-like peptide-1 release potency in STC-1, concentration-response, half-maximal inhibitory concentration in the STC-1 line (AID 1117345). It is filed as functional, cell-based.
The nature of assay [16]: cytotoxicity toward Colo320 cells – cell-based, CellTiter-Glo luminescence, IC50, dose response (AID 1117334). It is filed as functional. To be noted: COLO 320.
Assay [17] can be described thus: cytotoxicity toward HT-29 cells – cell-based, CellTiter-Glo luminescence, IC50, dose response (AID 1117330). It is filed as functional.
Assay [18] can be described thus: HCT116 cell viability decrease, GSK3B pretreatment – CellTiter-Glo, IC50, dose response (AID 1117339). It is filed as functional. To be noted: HCT-116.
Assay [19] can be described thus: Potency on glucagon-like peptide 1 release, dose-response in NCI-H716 cell line, half maximal inhibitory concentration (AID 1117344). It is filed as functional, cell-based.

T1 sequence (Q92731 whole entry): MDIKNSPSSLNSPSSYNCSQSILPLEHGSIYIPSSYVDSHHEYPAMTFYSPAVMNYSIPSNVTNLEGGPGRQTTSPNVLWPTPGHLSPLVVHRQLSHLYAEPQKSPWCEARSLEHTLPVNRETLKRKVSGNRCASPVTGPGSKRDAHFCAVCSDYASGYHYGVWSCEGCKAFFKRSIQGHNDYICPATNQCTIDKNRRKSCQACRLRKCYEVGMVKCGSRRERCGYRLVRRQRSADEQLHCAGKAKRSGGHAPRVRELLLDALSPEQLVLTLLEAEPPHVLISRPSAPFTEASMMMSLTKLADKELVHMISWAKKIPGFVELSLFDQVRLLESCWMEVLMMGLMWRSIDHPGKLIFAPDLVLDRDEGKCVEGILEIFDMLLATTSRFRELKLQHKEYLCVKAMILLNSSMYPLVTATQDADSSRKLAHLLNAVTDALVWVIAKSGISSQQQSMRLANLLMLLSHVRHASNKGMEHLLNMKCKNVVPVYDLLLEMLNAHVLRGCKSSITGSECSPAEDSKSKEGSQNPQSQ
Sequence of NADPH oxidase 1 (Q9Y5S8 whole entry): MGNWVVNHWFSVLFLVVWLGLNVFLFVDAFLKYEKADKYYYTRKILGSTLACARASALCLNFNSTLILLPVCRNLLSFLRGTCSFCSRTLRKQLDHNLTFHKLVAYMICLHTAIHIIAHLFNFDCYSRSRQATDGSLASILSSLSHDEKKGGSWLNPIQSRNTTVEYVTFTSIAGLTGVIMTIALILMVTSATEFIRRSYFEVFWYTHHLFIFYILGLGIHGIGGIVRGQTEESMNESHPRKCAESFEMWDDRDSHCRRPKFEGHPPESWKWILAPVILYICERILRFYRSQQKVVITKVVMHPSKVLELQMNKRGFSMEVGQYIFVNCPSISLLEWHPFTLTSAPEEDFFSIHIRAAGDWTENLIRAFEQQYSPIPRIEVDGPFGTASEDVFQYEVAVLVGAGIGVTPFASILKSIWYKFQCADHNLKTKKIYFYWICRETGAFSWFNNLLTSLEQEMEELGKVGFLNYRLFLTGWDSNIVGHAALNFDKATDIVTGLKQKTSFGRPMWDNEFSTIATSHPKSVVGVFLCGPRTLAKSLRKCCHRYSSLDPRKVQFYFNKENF
Sequence of Voltage-gated inwardly rectifying potassium channel KCNH2 (Q12809 whole entry): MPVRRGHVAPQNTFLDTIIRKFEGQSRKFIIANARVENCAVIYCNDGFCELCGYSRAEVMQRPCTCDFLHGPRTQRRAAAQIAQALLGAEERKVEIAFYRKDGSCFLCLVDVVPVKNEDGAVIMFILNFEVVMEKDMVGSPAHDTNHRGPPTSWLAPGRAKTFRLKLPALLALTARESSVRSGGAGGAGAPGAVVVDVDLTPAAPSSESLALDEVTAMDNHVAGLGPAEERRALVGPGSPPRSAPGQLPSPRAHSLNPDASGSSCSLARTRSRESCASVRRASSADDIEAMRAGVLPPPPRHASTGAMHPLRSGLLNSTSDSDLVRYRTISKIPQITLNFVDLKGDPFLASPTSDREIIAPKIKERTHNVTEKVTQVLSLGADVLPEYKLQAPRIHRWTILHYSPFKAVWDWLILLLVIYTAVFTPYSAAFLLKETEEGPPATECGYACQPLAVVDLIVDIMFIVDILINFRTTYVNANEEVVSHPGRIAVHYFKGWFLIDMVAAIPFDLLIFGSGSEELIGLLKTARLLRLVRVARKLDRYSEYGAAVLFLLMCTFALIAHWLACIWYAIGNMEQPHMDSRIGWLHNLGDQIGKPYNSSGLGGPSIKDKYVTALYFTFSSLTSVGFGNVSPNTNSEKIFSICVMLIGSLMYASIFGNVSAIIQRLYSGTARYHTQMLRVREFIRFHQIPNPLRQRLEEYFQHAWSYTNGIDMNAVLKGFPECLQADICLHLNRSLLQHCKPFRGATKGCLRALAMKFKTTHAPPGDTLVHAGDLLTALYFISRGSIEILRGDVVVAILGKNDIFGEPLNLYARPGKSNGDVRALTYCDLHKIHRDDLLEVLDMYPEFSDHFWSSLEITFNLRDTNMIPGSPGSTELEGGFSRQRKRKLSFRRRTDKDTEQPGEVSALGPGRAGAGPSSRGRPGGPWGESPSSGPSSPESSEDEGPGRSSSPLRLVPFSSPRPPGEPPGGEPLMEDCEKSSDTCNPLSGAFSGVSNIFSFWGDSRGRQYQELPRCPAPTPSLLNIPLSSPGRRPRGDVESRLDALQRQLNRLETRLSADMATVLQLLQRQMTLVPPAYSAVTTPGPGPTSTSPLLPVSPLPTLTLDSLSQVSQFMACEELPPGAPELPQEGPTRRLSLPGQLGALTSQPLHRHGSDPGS

For the compound `CCCCCCNC(=O)c1cc(-c2ccco2)nc2ccccc12`, the IC50 on Estrogen receptor beta [1] was 2.6 µM (active); in assay [2], 13.6 µM (active); in assay [3] it was 16 µM (active); in assay [4], 5.1 µM (active).

With `O=C(NC(=S)Nc1ncc(Br)cc1Br)c1ccccc1`, the EC50 in assay [5] is 1.46 µM (active).

Take `Cc1cc(C(=O)Cn2nc(C(=O)O)c3ccccc3c2=O)c(C)n1CC(F)(F)F`: the IC50 in [6] is > 60 µM (not active).

Take `C[C@@H]1CN(C2=C(Cl)C(=O)N(c3cccc([N+](=O)[O-])c3)C2=O)CCN1`: the IC50 in [7] is > 100 µM (not active); on Bcl-2-related protein A1 [8], 9.03 µM (active); on Bcl-2-related protein A1 [9], 12.7 µM (active).

Turning to `O=C(CCCn1c(=S)[nH]c2ccccc2c1=O)N1CCN(c2ccc(C(F)(F)F)cc2)CC1`, the IC50 against Estrogen receptor beta [10] is 33 µM (not active).

`CCC1(CC)NC(=O)N(CC(=O)OCC(=O)c2cc(C)n(Cc3ccccc3)c2C)C1=O`: the 50% effective concentration (EC50) in assay [11] is > 30 µM (not active).

`COc1ccc(-c2nc(-c3ccccc3)c(-c3ccccc3)[nH]2)cc1`: the IC50 at NADPH oxidase 1 is reported as > 17 µM (not active).

For the compound `Oc1ccc(Cl)cc1Cc1ccccc1` [CLOROPHENE], the IC50 is > 20 µM (inactive) in assay [12]; > 20 µM (inactive) in [13]; > 20 µM (inactive) in [14]; 7.62 µM (inactive) in [15]; 13 µM (inactive) in assay [16]; > 20 µM (inactive) in assay [17]. For the same compound, the IC50 in [18] is > 6.67 µM (inactive); in [19] it was 33.8 µM (inactive).
